In patent US4482548A, “Analgesic pharmaceutical compositions containing 5-phenyl-1,4-benzo diazepine compounds and a method of using same” (Kali-Chemie Pharma GmbH, priority 1982, dated 1984):

Columns and labels:
arthritis pain in rats = test: Arthritis pain test on rats (suppression of the arthritis pain in rats); format: in vivo, male rats of the OFA strain; details: Rattus norvegicus, po, 3 h after administration; dosage protecting 50% of the treated animals against pain
Description: (§1) Such tests, for instance, compare the pain allaying effect of the test compound in the arthritis pain test with the sedative and muscle relaxing effects which impair the normal activity of rats.
1. Arthritis pain test on rats.
Male rats of the OFA strain, weighing between 160 g. and 180 g. are anesthetized by intraperitoneal administration of 20 mg./kg. of Pentobarbital Sodium. 0.1 ml. of a suspension of 0.6 mg. of Mycobacterium Smegmae (SI043) in paraffin oil are injected intracutaneously into the left hind paw of the rats. Fourteen days thereafter, when a pronounced secondary arthritis has developed especially in the right hind paw of the rats, the effects of the test compounds are investigated. For this purpose a control measurement is carried out thirty minutes before administration of the compound to be tested by deflecting three times the ankle joints of the right hind paws of the test animals and counting the number of distress sounds emitted by them. […] The ankle joint deflecting procedure is repeated three hours after oral administration of the compounds to be tested. Animals which emit distress sounds either only once or not at all are considered as being protected against pain. The dosage by which protection against pain is achieved in 50% of the treated animals is designated as the effective dosage ED50.

[1] = Inhibition of the locomotion exploratory activity according to Janssen (suppression of the locomotor exploration activity on rats); parameters: species or system male rats of the Sprague-Dawley type; details: rat, in vivo, po, 1 h before test; dosage corresponding to 9 points for six pairs of rats
Description: as §1
2. Determination of the inhibition of the locomotion exploratory activity according to the method described by Janssen in "Psychopharmakologie", vol. 1 (1961), pages 141-146.
The compound to be tested is orally administered in the form of a suspension in 2% Tylose solution to male rats of the Sprague-Dawley type one hour before starting the test. Six pairs of rats are used for each dosage to be administered. Each pair of rats is then placed into an environment which is entirely unknown to them. The locomotor activity of said rats with respect to the exploration and inquisitiveness phase within the first thirty seconds is observed and recorded by two observers. The observed activity is evaluated according to a point system. According to said system the highest possible number of points for six pairs of rats amounts to 18 points. That dosage which corresponds to 9 points for six pairs of rats is designated as ED50.

Acute toxicity on mice = details: mouse, in vivo, po, read-out: Acute toxicity on mice ED50

| Structure (SMILES) | ED50 (arthritis pain in rats) [mg/kg] | ED50 at 1 h [1] [mg/kg] | LD50 (Acute toxicity on mice) [mg/kg] |
| --- | --- | --- | --- |
| CN1C(=O)CN=C(c2ccccc2)c2cc(Cl)ccc21 [Diazepam, 7-chloro-1-methyl-5-phenyl-1,3-dihydro-2H-1,4-benzo diazepin-2-one, reference compound] | 6.2 | 11.5 | – |
| COCC1CN=C(c2ccccc2Cl)c2cc(Br)ccc2N1C (centres unmarked) [compound 1, 1-methyl-7-bromo-2-methoxy methyl-5-(2-chlorophenyl)-1H-2,3-dihydro-1,4-benzo diazepine] | 4.8 | 56.2 | 2390 |
| COCC1CN=C(c2ccccc2Cl)c2cc(Cl)ccc2N1C (centres unmarked) [compound 2, 1-methyl-7-chloro-2-methoxy methyl-5-(2-chlorophenyl)-1H-2,3-dihydro-1,4-benzo diazepine] | 10 | 55.5 | 1470 |
